In patent publication US20080207594A1, “Use of Gsk-3 Inhibitors for Preventing and Treating Pancreatic Autoimmune Disorders” (Davelogen Aktiengesellschaft, priority 2005, published 2008):

Key:
[1] = test system: Pax4 promoter; assay: Cellular HTS-Pax4 screening assay (Capan-1 pKS-Pax-4-LUC luciferase reporter); format: cell-based, human; settings: Capan-1 pKS-Pax-4-LUC clone18; compound 10 μM with Trichostatin A 0.75 μM; 30 hour
Text: To perform high throughput screening for compounds that are either directly or indirectly capable of switching on Pax4 expression, a Pax4 reporter gene assay was established. Therefore, cDNA constructs containing a luciferase reporter gene under the control of the Pax4 promoter with the complete Pax4 gene locus were introduced into the human pancreatic duct cell line CAPAN-1.
Generation of stable Cell Lines and Drug Selections Capan-1 human pancreatic duct cell line ([HBT-79], purchased from American Type Culture Collection (ATCC), referred to as Capan-1 herein) were grown in high glucose DMEM [Gibco Cat. No. 61965-026] containing 10% FBS [Gibco Cat. No. 10270-106] at 37° C. under an atmosphere of 5% CO2. The Pax-4-reporter gene construct (referred to as pKS-Pax-4-LUC)— a cDNA construct containing a luciferase reporter (LUC) gene under the control of the Pax4 promoter with the complete Pax4 gene locus were cloned into the plasmid pBlueskript ks (FIG. 5). […]
Capan-1, stably transfected with pKS-Pax-4-LUC (clone18), cultivated without G418 for 4 day's, were plated at a density of 1×10^4 cells per 96 well plate [Greiner, LIA plate white, Cat. No. 655083] in 100 μl DMEM containing 10% (v/v) FBS without G418 and grown for 24 hour. […] The luminescence was measured within 15 minutes after reagent addition for maximum sensitivity.

[2] = test system: minimal CMV promotor; assay: Counter screen assay (Capan-1-pCMVmin-LUC-54 cells); format: cell-based, human; settings: compound 10 μM with Trichostatin A 0.75 μM, 30 hour
Description: Generation of stable Cell Lines and Drug Selections Capan-1 human pancreatic duct cell line ([HBT-79], purchased from American Type Culture Collection (ATCC), referred to as Capan-1 herein) were grown in high glucose DMEM [Gibco Cat. No. 61965-026] containing 10% FBS [Gibco Cat. No. 10270-106] at 37° C. under an atmosphere of 5% CO2. The Pax-4-reporter gene construct (referred to as pKS-Pax-4-LUC)— a cDNA construct containing a luciferase reporter (LUC) gene under the control of the Pax4 promoter with the complete Pax4 gene locus were cloned into the plasmid pBlueskript ks (FIG. 5). The Minimal CMV reporter gene construct (referred to as pCMVmin-LUC): a fire fly luciferase reporter gene (LUC) under the control of a minimal CMV promotor (56 bp) was cloned into pcDNA3.1 plasmid (without promotor) (FIG. 6).
Stable transfected Capan-1-pCMVmin-LUC-54 cells, cultivated without G418 for 4 day's, were plated at a density of 4×10^4 cells per 96 well plate [Greiner, LIA plate white, Cat. No. 655083] in 100 μl DMEM containing 10% (v/v) FBS and grown for 24 hour. Cells were starved by serum starvation for 16 hour in 8511 medium without FBS [DMEM(Cat. No. 25030-024) containing 5% L-glutamine]. […] The luminescence was measured within 15 minutes after reagent addition for maximum sensitivity.

[3] = test system: Pax4; assay: Pax4 transcription in INS-1E insulinoma cells, quantitative RT-PCR; format: cell-based, rat; settings: INS-1E cells
Text: The response of the Pax4 gene to test compounds was investigated in the rat insulinoma cell line INS-1E. INS-1E cells are known to express Pax4 and to upregulate Pax4 levels in response to the treatment with activin-A and betacellulin. In the search for novel beta cell mitogens and/or beta cell protective agents the inventors treated INS-1E cells with different test compounds.
(§1) Total RNA from 8×10^4 cells growing on 4 cm^2 surface area of a tissue culture dish was extracted using Qiagen RNAeasy kit according to the instructions of the manufacturer (Qiagen) and 2 μg was converted into cDNA. Primers for pax4, 18S RNA, and rat RNA polymerase II largest subunit (RPB1) were designed using the Primer Express 1.5 Software from Applied Biosystems and sequences can be obtained upon request. Quantitative real-time PCR was performed using Applied Biosystems SDS 7000 detection system. Amplifications from 2 independent experiments were performed in duplicate for each transcript and mean values were normalized to the mean value of the reference RNA 18S RNA.
(§2) Cells were seeded at a density of 2×10^4 cells per cm^2 6 to 8 days before the treatment with chemicals. During the growth period the medium was changed once. The cells were incubated for different periods of time with chemicals under serum-free conditions. The cells were harvested in Qiagen RNAeasy cell lysate buffer and immediately transferred to dry ice. The samples were stored at −20° C. until RNA isolation was carried out.
as §2, with “RNA easy” for “RNAeasy”, “−20 degree” for “−20° C.”

[4] = test system: Pax4; assay: Pax4 expression in human islets; format: cell-based; settings: 5 μM, 48 h
Description: FIG. 2 illustrates relative Pax4 expression in untreated human islets and human islets, treated with 5 μM Kenpaullone (KP) for 48 h.
Further, human islets were treated with 5 μM Kenpaullone for 48 h. The treated islets show a 10-15 fold expression of Pax4 compared to untreated pancreatic islets.

[5] = test system: Pax4; assay: Pax4 expression in small intestine and colon
[6] = test system: human Pax4 promoter; assay: Pax4 reporter gene assay in INS-1-cl.-3.5 cells; format: cell-based, rat; settings: INS-1-cl.-3.5 or INS-1-cl.-9 cells; FIG. 18, FIG. 19
Description: (§3) INS-1E cell lines were grown as described below. The Pax-4-reporter gene construct (referred to as pKS-Pax-4-LUC), a cDNA construct containing a firefly luciferase reporter (LUC) gene under the transcriptional control of human Pax4 promoter sequences and the nearly complete human Pax4 gene locus (cf. FIG. 5A) was cloned into the plasmid pBluescript ks.
(§4) Adherent INS-1E cells were transfected using Lipofectamine 2000 (Invitrogen) according to the protocol provided by the supplier. The transfected cells were treated with media containing 400 μg/ml G418 Sulfate (e.g. Geneticin from Gibco; Cat. No. 11811-098), a selection agent for eukaryotic cells, 24 to 48 hours after the transfection. To establish independent stable cell lines, cell colonies which occurred 2 to 6 weeks after the transfection were individually transferred to new culture dishes and then propagated like untransfected INS-1E cells, but in the presence of G418 Sulfate.
(§5) For the identification and/or characterization of beta-cell mitogens a Pax4 reporter gene assay has been established. […]
(§6) Luciferase activity that can be quantified using appropriate imaging systems reflects the activation status of the human Pax4 promoter. […]

[7] = test system: human Pax4 promoter; assay: Pax4 reporter gene assay in INS-1-cl-1.5 cells; format: cell-based, rat
Description: as §3, §4, §5, §6

[8] = test system: RNA polymerase II largest subunit (RPB1); assay: Expression of unrelated gene RPB1 in INS-1E cells, quantitative RT-PCR; format: cell-based, rat
Text: The response of the Pax4 gene to mitogens was investigated in the rat insulinoma cell line INS-1E. INS-1E cells are known to express Pax4 and to upregulate Pax4 levels in response to the treatment with activin-A and betacellulin (Ueda (2000), supra, Li et al. (2004) supra, Brun et al. (2004), supra). In the search for novel beta-cell mitogens the inventors treated INS-1E cells with proteins related to activin A or betacellulin. […] The Pax4 RNA expression level was normalized to this of 18S RNA. The level of the unrelated gene RNA polymerase II largest subunit (RPB1) was unaffected by activin B treatment.
as §1
INS-1E cells were cultured as described (Merglen, (2004) Endocrinology; 145: 667-678). […]

`O=C1Cc2c([nH]c3ccc(Br)cc23)-c2ccccc2N1` [Kenpaullone, 9-Bromo-7,12-dihydro-indolo[3,2-d][1]benzazepin-6(5H)-one] was tested, and the “induction of luciferase activity” value [1] was 6 fold, the “induction in the counterscreen” value [2] was 1.2 fold and the “induction of relative Pax4 expression compared to the control” value ([3]; 20 μM) was 8 fold. The “Pax4 gene transcription over time (in words)” value ([3]; 20 μM, FIG. 1) was “transiently induces Pax4 gene transcription”, the “expression of Pax4 compared to untreated pancreatic islets” value [4] was 10-15 fold and the “effect on Pax4 expression in small intestine and colon” value [5] was “No effect”.

TGF-beta 1: Activin related protein was tested, and the “Pax4 reporter response of clone (in words)” value (shortened to “Pax4 reporter response”) [6] was “does not effect Pax4 transcription”.

B1: Activin: Activin; figures 18 and 19 name activin-A (protein, UniProt P08476 311-426, looked up)
Inhibin beta A chain: GLECDGKVNICCKKQFFVSFKDIGWNDWIIAPSGYHANYCEGECPSHIAGTSGSSLSFHSTVINHYRMRGHSPFANLKSCCVPTKLRPMSMLYYDDGQNIIKKDIQNMIVEECGCS
modifications: Inhibin beta A chain
For B1, the “Pax4 reporter response” value [7] was “does not react to Activin stimulation” and the “Pax4 reporter response” value [6] was “react to Activin treatment”.

B2: activin B: protein related to activin A (protein, UniProt P09529 293-407, looked up)
Inhibin beta B chain: GLECDGRTNLCCRQQFFIDFRLIGWNDWIIAPTGYYGNYCEGSCPAYLAGVPGSASSFHTAVVNQYRMRGLNPGTVNSCCIPTKLSTMSMLYFDDEYNIVKRDVPNMIVEECGCA
modifications: Inhibin beta B chain
For B2, the “increase in Pax4 levels (maximal Pax4 induction)” value ([3]; 1 nM) was about 7.5 fold, the “stimulation of Pax4 transcription relative to activin A (in words)” value ([3]; FIG. 16) was “almost equally potent in stimulating Pax4 transcription as activin A” and the “level of RNA polymerase II largest subunit (RPB1)” value [8] was “unaffected”.
